Assay: Solubility in water
Format: physicochemical
Description: The dosage of the amount of Medroxy progesterone acetate thus dissolved in water was determined by spectrophotometry at 241 nm.

- solubility in water: very low
Compound: CC(=O)O[C@]1(C(C)=O)CC[C@H]2[C@@H]3C[C@H](C)C4=CC(=O)CC[C@]4(C)[C@H]3CC[C@@]21C [Medroxy progesterone acetate]

— USRE39104E1, “Process for the production of dry pharmaceutical forms and the thus obtained pharmaceutical compositions” (Laboratoires Effik, priority 1994, dated 2006)
